# Data published in article PMC9095466 (Nature, 2022).
# pEC50: −log10 of the molar value. “And” between values parts separate entries of the source, which are not always exact repeats. Equal entries are not always repeated. Where two headings read alike, the source gives them in different places. *1 amine or outer side, *2 acyl side, *3 side chain or, on linkers, in order; H or OH if unused. Where a SMILES comes first, the peptide text is derived from it. Bridges are numbered along the chain shown (N, C = ends). [ ]: non-standard residue; d: D form. The star is where a group is joined. X1 = CC[C@H](C)[C@@H](N[*:1])[C@@H](O)CC(=O)O[C@H](C(=O)[C@H](C)C(=O)[*:2])C(C)C; NMeY = CN[C@@H](Cc1ccc(O)cc1)C(=O)O; dNMeL = CN[C@H](CC(C)C)C(=O)O; Pyruvoyl = CC(=O)C(=O)*
# Tests used:
# [1] = tested on: SARS-CoV-2 lineage B strain (VIDO); assay: microbe, parasite or virus in culture; assay type: cell-based; details: for Nucleocapsid / dsRNA: Figure 2a, two replicates; for Nucleocapsid: DMSO control about 91-94; for dsRNA: DMSO control about 93-95; for inhibition at 0.1 µM: read-out: inhibition of SARS-CoV-2 infection
# Vero E6 cells = assay: Cytotoxicity assay (Cell Titer-Glo 2.0) in Vero E6 cells; assay type: cell-based; details: 24 h, single experiments N1-N4
# Experimental: (§1) Calu-3 and Vero E6 cells (2500 or 10,000 cells for samples, 80–20,000 cells for standard curve) were seeded in 96-well plates. Following a 24-h incubation at 37 °C, 5% CO2, cells were washed with D-PBS and compounds added (10 µM) for an additional 24-h incubation. Cellular viability was assessed using Cell Titer-Glo 2.0 Cell Viability Assay (Promega) according to the manufacturer’s instructions. The number of viable cells was extrapolated using the standard curve. Cellular viability in Vero E6 cells was expressed relative (%) to vehicle-treated cells. Data are from four independent experiments (mean ± s.d.).
# human TMPRSS2 = human TMPRSS2 (Homo sapiens, UniProt O15393); assay: cell-based; details: for TMPRSS2 activity (%): Figure 1B, single experiments N1-N3
# Chain of human TMPRSS2 (O15393 whole entry): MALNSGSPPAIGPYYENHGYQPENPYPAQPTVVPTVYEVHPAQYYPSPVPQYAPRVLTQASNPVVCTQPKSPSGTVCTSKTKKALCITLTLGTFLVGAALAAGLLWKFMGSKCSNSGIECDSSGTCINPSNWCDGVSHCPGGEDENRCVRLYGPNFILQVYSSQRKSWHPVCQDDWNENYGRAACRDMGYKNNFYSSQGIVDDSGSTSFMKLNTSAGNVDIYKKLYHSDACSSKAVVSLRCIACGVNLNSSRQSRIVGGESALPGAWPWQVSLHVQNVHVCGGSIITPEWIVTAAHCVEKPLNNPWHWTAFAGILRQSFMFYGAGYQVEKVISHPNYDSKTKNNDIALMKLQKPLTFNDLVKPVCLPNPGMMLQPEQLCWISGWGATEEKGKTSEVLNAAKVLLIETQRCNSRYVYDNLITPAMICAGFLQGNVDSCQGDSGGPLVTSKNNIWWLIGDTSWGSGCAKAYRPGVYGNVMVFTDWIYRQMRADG
# [2] = Cytotoxicity assay (Cell Titer-Glo 2.0) in Vero E6 cells; assay type: cell-based; details: African green monkey, % Viability of Vero E6 cells
# Experimental: as §1
# SARS-CoV-2 (VIDO) [3] = assay type: cell-based; parameters: plaque assay titre, Figure 2c: unit not given beside the values; details: for reduction of viral titre (plaque assay): supernatant of infected Calu-3 cells, vs DMSO-treated infected control; for plaque assay titre, Figure 2c: replicate columns
# [4] = tested on: SARS-CoV-2 (USA-WA1/2020, lineage A); parameters: species or system K18-hACE2 mice; details: mouse, in vivo
# SARS-CoV-2 (VIDO) [5] = assay: microbe, parasite or virus in culture; assay type: cell-based; details: Severe acute respiratory syndrome coronavirus 2; colonoids pretreated 3 h with 100 nM, infected 3 days, vs DMSO-treated; read-out: inhibition of SARS-CoV-2 infection in colonoids
# [6] = tested on: SARS-CoV-2 (USA-WA1/2020, lineage A); assay: K18-hACE2 mouse model of SARS-CoV-2, IHC of nucleocapsid with digital image analysis; assay type: in vivo, K18-hACE2 mice; details: individual mice, 8-day regimen, tissue at death or end-point
# Experimental: To detect viral antigen, sections were labelled with anti-SARS-CoV-2 nucleocapsid protein rabbit IgG monoclonal antibody (GeneTex; GTX635679) at a 1:5,000 dilution and processed using a Leica Bond Max automated IHC stainer. Leica Bond Polymer Refine Detection (Leica; DS9800) with DAB was used as the chromogen. Image acquisition was performed using a Roche Ventana DP200 slide scanner. Digital image analysis was performed using QuPath software[65],[66] v.0.2.3. Tissues were annotated to include all available lung tissue or all brain tissue excluding cerebellum, as cerebellar tissue was not available for all mice. Following annotation, automated detection was performed using automated SLIC superpixel segmentation with a DAB mean detection threshold of 0.18892.
# [7] = tested on: SARS-CoV-2 (USA-WA1/2020, lineage A); assay: K18-hACE2 mouse model of SARS-CoV-2, H&E histopathology of lung and brain; details: 8-day regimen
# Experimental: For histological examination, mouse lungs and brains were collected directly after euthanasia and placed in 10% formalin for more than 72 h, after which tissues were embedded in paraffin. Tissue sections (4 μm) were analysed after staining with H&E and scored blinded by an anatomic pathologist. For lung, scores were applied based on the percentage of each tissue type (alveolus, vessels and so on) affected using the following criteria: (0) normal; (1) less than 10% affected; (2) 10–25% affected; (3) 26–50% affected; and (4) more than 50% affected[64]. Assessment of lung pathology in K18-hACE2 mice infected with the SARS-CoV-2 B.1.617.2 (Delta) VOC after single-dose treatment was performed on IHC sections counterstained with haematoxylin. For brains, histological scoring was assessed for perivascular inflammation using the most severely affected vessel and the following criteria: (0) no perivascular inflammation; (1) incomplete cuff one cell layer thick; (2) complete cuff one cell layer thick; (3) complete cuff two to three cells thick; and (4) complete cuff four or more cells thick. Necrotic cells in the neuroparenchyma were assessed per 0.237 mm^2 field using the most severely affected area and the following criteria: (0) no necrotic cells; (1) rare individual necrotic cells; (2) fewer than 10 necrotic cells; (3) 11 to 25 necrotic cells; (4) 26 to 50 necrotic cells; and (5) greater than 50 cells.
# [8] = tested on: SARS-CoV-2 (USA-WA1/2020, lineage A); assay type: in vivo, K18-hACE2 mice; details: Figure S8 C, tissue plaque assay, individual animals
# SARS-CoV-2 = tested on: SARS-CoV-2; parameters: method as in PMID 33495306; details: pneumocyte-like cells; read-out: EC50 against SARS-CoV-2 infection; cited from earlier work
# [9] = Severe acute respiratory syndrome coronavirus 2, Calu-3
# [10] = individual mice, tissue at death or end-point
compound,measurement,setting,value
CC(NC(=O)C(CCC(N)=O)NC(=O)C(N)CCCNC(=N)N)C(=O)NC(CCCNC(=N)N)C(=O)c1nc2ccccc2s1 (stereo not shown) [Compound N-0100],Nucleocapsid,[1],59.9825 and 100
same,dsRNA,[1],53.1735 and 98.3497
same,inhibition at 0.1 µM,[1]; [9],< 25%
same,% Viability of Vero E6 cells,"Vero E6 cells; 10 μM compound, relative to vehicle (DMSO 0.01%), 10 µM",122.116% and 96.727% and 87.5998% and 134.594%
same,inhibition of TMPRSS2 activity (reduction of substrate proteolysis),"human TMPRSS2; 10 nM compound, 24 h, vs untreated/vehicle TMPRSS2-expressing Vero E6 cells",did not inhibit
same,TMPRSS2 activity (%),human TMPRSS2,113.572% and 108.611% and 101.926%
N=C(N)NCCCCC(=O)NC(CCC(N)=O)C(=O)NC(CC1CCCCC1)C(=O)NC(CCCNC(=N)N)C(=O)c1nc2ccccc2s1 (stereo not shown) [Compound N-0678],Nucleocapsid,[1],70.7269 and 93.9071
same,dsRNA,[1],64.9837 and 89.8579
same,inhibition at 0.1 µM,[1]; [9],< 23%
same,"viability at 24 h, 10 µM",[2],113%
same,TMPRSS2 activity (%),human TMPRSS2,91.6478% and 104.935% and 97.8749%
same,inhibition at 0.01 µM,"human TMPRSS2; Vero C1008, 10 nM compound, 24 h, vs untreated/vehicle TMPRSS2-expressing Vero E6 cells, read-out: inhibition of TMPRSS2 activity (reduction of substrate proteolysis)",5%
"CS(=O)(=O)NC(CCC(N)=O)C(=O)NC(Cc1ccccc1)C(=O)NC(CCCNC(=N)N)C(O)c1nc2ccccc2s1 (stereo not shown) [N-0385(OH), Ms-QFR-Kbt(OH)]",reduction of viral titre (plaque assay),SARS-CoV-2 (VIDO) [3]; 40 nM,did not induce reduction
same,"plaque assay titre, Figure 2c",SARS-CoV-2 (VIDO) [3]; 40 nM,240000 and 1067000 and 627000 and 715000 and 1050000 and 440000 and 310000 (2×) and 190000 and 70000 and 400000 and 350000 and 264000 and 242000
same,reduction of viral titre (plaque assay),SARS-CoV-2 (VIDO) [3]; 200 nM,did not induce reduction
same,"plaque assay titre, Figure 2c",SARS-CoV-2 (VIDO) [3]; 200 nM,200000 and 150000 (2×) and 30000 and 500000 (4×) and 780000 and 594000 and 286000 and 190000 and 950000
same,inhibition of SARS-CoV-2 infection in dose-response,"[1]; Calu-3 cells, concentrations up to 1 μM",substantial inhibition was not observed
same,Nucleocapsid,[1],67.4057 and 91.7182
same,dsRNA,[1],60.8663 and 93.4144
same,pEC50,"[1]; Severe acute respiratory syndrome coronavirus 2, Calu-3, read-out: SARS-CoV-2 VIDO Nucleocapsid EC50 ± SE",< 6.00
same,inhibition at 0.1 µM,[1]; [9],< 23%
same,"Figure 2b dose-response, Mean",[1]; log [C] (nM) 0.20412,76.2535
same,"Figure 2b dose-response, Mean",[1]; log [C] (nM) 0.90309,92.6293
same,"Figure 2b dose-response, Mean",[1]; log [C] (nM) 1.60206,68.5403
same,"Figure 2b dose-response, Mean",[1]; log [C] (nM) 2.30103,90.4217
same,"Figure 2b dose-response, Mean",[1]; log [C] (nM) 3,72.2184
same,"Figure 2b dose-response, Mean",[1]; log [C] (nM) -0.49485,87.0011
same,"Figure 2b dose-response, Mean",[1]; log [C] (nM) -1.19382,84.82
same,average weight loss at 6 dpi,[4],12%
same,survival to the end-point (14 dpi),[4],10%
same,weight loss at the study end-point,[4],15%
same,inhibition at 0.1 µM,SARS-CoV-2 (VIDO) [5],< 20%
same,Brain No. Positive (IHC detections),[6],205622 and 308647 and 423604 and 84 and 143563 and 207074 and 97743 and 210 and 4043 and 310256
same,Brain No. Positive per mm^2,[6],4555.9 per mm^2 and 7896.3 per mm^2 and 7494 per mm^2 and 2.578 per mm^2 and 3909.6 per mm^2 and 5209.1 per mm^2 and 2144.6 per mm^2 and 10.67 per mm^2 and 137.97 per mm^2 and 6010.9 per mm^2
same,Brain Positive %,[6],45.15% and 78.61% and 74.5% and 0.0256% and 38.77% and 51.89% and 21.4% and 0.1052% and 1.361% and 59.5%
same,Lung No. Positive (IHC detections),[6],39230 and 61582 and 572 and 191 and 315 and 37366 and 98 and 384 and 178
same,Lung No. Positive per mm^2,[6],2703.8 per mm^2 and 1622.2 per mm^2 and 26.11 per mm^2 and 8.074 per mm^2 and 15.79 per mm^2 and 10.94 per mm^2 and 1638.9 per mm^2 and 3.505 per mm^2 and 17.97 per mm^2 and 6.38 per mm^2
same,Lung Positive %,[6],26.59% and 15.97% and 0.2589% and 0.0798% and 0.1558% and 0.1086% and 16.31% and 0.0348% and 0.1784% and 0.063%
same,reduction in TMPRSS2 activity,human TMPRSS2; cells treated with up to 10 μM,no significant reduction
same,Brain lesions (H&E),"[7]; N-0385: surviving mice, day 14",reduced
same,Perivascular infiltrates in CNS score,"[7]; individual mice, most severely affected vessel",0 and 2 and 1
same,Alveolar cells score,[7]; [10],0 and 1 ((1) <10% affected) and 2 ((2) 10–25% affected)
same,Alveolar edema score,[7]; [10],0 and 1 ((1) <10% affected) and 2 ((2) 10–25% affected)
same,Alveolar fibrin score,[7]; [10],0 and 1 ((1) <10% affected) and 2 ((2) 10–25% affected)
same,Fibrosis score,[7]; [10],0
same,Interstitial infiltrates in lung score,[7]; [10],0 and 1 ((1) <10% affected) and 3 ((3) 26–50% affected)
same,Lymphoid hyperplasia score,[7]; [10],0
same,Perivascular infiltrate in lung score,[7]; [10],1 ((1) <10% affected) and 3 ((3) 26–50% affected) and 0
same,Type II pneumocyte hyperplasia score,[7]; [10],0 and 1 ((1) <10% affected) and 3 ((3) 26–50% affected)
same,PFU/g,[8]; Females,15000000 PFU/g and 1441176 PFU/g and 8676471 PFU/g and 0 PFU/g and 2014706 PFU/g
same,PFU/mL,[8]; Females,3000000 PFU/mL and 288235 PFU/mL and 1735294 PFU/mL and 0 PFU/mL and 402941 PFU/mL
same,PFU/g,[8]; Males,0 PFU/g and 9852941 PFU/g and 720588 PFU/g
same,PFU/mL,[8]; Males,0 PFU/mL and 1970588 PFU/mL and 144118 PFU/mL
CC[C@H](C)[C@H]1NC(=O)[C@@H](NC(=O)[C@@H](CC(C)C)N(C)C(=O)[C@@H]2CCCN2C(=O)C(C)=O)[C@@H](C)OC(=O)[C@H](Cc2ccc(OC)cc2)N(C)C(=O)[C@@H]2CCCN2C(=O)[C@H](CC(C)C)NC(=O)[C@@H](C)C(=O)[C@H](C(C)C)OC(=O)C[C@@H]1O [Plitidepsin] (Pyruvoyl-P[dNMeL]T[X1]LP[NMeY](Me); ester 3-C),pEC50,SARS-CoV-2,8.79
Triton X-100 [reference compound],% Viability of Vero E6 cells,Vero E6 cells; Triton X-100 0.01% toxicity control,0.08115% and 6.372% and 5.985% and 2.918%
